Measured values from patent US9447120B2, “Crystalline forms of zinc trisodium pentetic acid” (Hameln Pharma Plus GmbH, priority 2013, dated 2016).

Columns and labels:
[1] = Determination of the hygroscopicity (weight increase in a stability chamber); assay type: physicochemical
Protocol: Here, the samples used were each subjected to the same pre-drying process (cf. Examples 3 and 4). The samples were exposed in each case for the time period stated in the Table at 25° C. and an air humidity of 65% relative air humidity.
The hygroscopicity of Zn-DTPA was checked by measuring the weight increase in a controlled environment. At air temperature (25±2°) C. and (60±5)% air humidity in a stability chamber (Thermo TEC), the weights of two samples (5.000 g) in each case were checked (Analytical balance, XS 205, Mettler Toledo). The weight was checked after 1, 2, 4, 6, 8, 24 and 48 hours.

[2] = lyophilized powder, over 24 h; cited from earlier work
[3] = Table 6, time 1 h, 25° C., 65% relative air humidity
[4] = Table 6, time 2 h, 25° C., 65% relative air humidity
[5] = Table 6, time 4 h, 25° C., 65% relative air humidity
[6] = Table 6, time 6 h, 25° C., 65% relative air humidity
[7] = Table 6, time 8 h, 25° C., 65% relative air humidity
[8] = Table 6, time 24 h, 25° C., 65% relative air humidity
[9] = Table 6, time 48 h, 25° C., 65% relative air humidity

Mean mass increase [1, 3] [%]	Mean mass increase [1, 4] [%]	Mean mass increase [1, 5] [%]	Mean mass increase [1, 6] [%]	Mean mass increase [1, 7] [%]	Mean mass increase [1, 8] [%]	Mean mass increase [1, 9] [%]	Structure (SMILES)	also measured
0.56	0.97	1.73	2.61	3.26	7.82	12.02	O=C([O-])CN(CCN(CC(=O)[O-])CC(=O)[O-])CCN(CC(=O)[O-])CC(=O)[O-].[Na+].[Na+].[Na+].[Zn+2] [Amorph Il, trisodium zinc diethylenetriaminepentaacetate]	Mean mass increase ([1]; Table 1, time 1 h, product obtained by prior-art route, listed as Batch 2): 0.56%; Mean mass increase ([1]; Table 1, time 2 h, product obtained by prior-art route, listed as Batch 2): 0.97%; Mean mass increase ([1]; Table 1, time 4 h, product obtained by prior-art route, listed as Batch 2): 1.73%; Mean mass increase ([1]; Table 1, time 6 h, product obtained by prior-art route, listed as Batch 2): 2.61%; Mean mass increase ([1]; Table 1, time 8 h, product obtained by prior-art route, listed as Batch 2): 3.26%; Mean mass increase ([1]; Table 1, time 24 h, product obtained by prior-art route, listed as Batch 2): 7.82%; Mean mass increase ([1]; Table 1, time 48 h, product obtained by prior-art route, listed as Batch 2): 12.02%
							O=C([O-])CN(CCN(CC(=O)[O-])CC(=O)[O-])CCN(CC(=O)[O-])CC(=O)[O-].[Na+].[Na+].[Na+].[Zn+2] [conventional Zn-DTPA, trisodium zinc diethylenetriaminepentaacetate]	behaviour due to hygroscopy ([1]; sufficiently long exposure to air humidity): deliquesces
0.34	0.57	1.00	1.49	1.84	4.42	5.07	O=C([O-])CN(CCN(CC(=O)[O-])CC(=O)[O-])CCN(CC(=O)[O-])CC(=O)[O-].[Na+].[Na+].[Na+].[Zn+2] [Form II, A, trisodium zinc diethylenetriaminepentaacetate]	
							O=C([O-])CN(CCN(CC(=O)[O-])CC(=O)[O-])CCN(CC(=O)[O-])CC(=O)[O-].[Na+].[Na+].[Na+].[Zn+2] [Zn-DTPA, trisodium zinc diethylenetriaminepentaacetate]	water absorbed [2]: more than 10 % by weight
0.51	0.89	1.56	2.35	2.95	7.38	11.92	O=C([O-])CN(CCN(CC(=O)[O-])CC(=O)[O-])CCN(CC(=O)[O-])CC(=O)[O-].[Na+].[Na+].[Na+].[Zn+2] [Amorph I, trisodium zinc diethylenetriaminepentaacetate]	Mean mass increase ([1]; Table 1, time 1 h, product obtained by prior-art route, listed as Batch 1): 0.51%; Mean mass increase ([1]; Table 1, time 2 h, product obtained by prior-art route, listed as Batch 1): 0.89%; Mean mass increase ([1]; Table 1, time 4 h, product obtained by prior-art route, listed as Batch 1): 1.56%; Mean mass increase ([1]; Table 1, time 6 h, product obtained by prior-art route, listed as Batch 1): 2.35%; Mean mass increase ([1]; Table 1, time 8 h, product obtained by prior-art route, listed as Batch 1): 2.95%; Mean mass increase ([1]; Table 1, time 24 h, product obtained by prior-art route, listed as Batch 1): 7.38%; Mean mass increase ([1]; Table 1, time 48 h, product obtained by prior-art route, listed as Batch 1): 11.92%
0.32	0.54	0.92	1.34	1.64	3.91	6.81	O=C([O-])CN(CCN(CC(=O)[O-])CC(=O)[O-])CCN(CC(=O)[O-])CC(=O)[O-].[Na+].[Na+].[Na+].[Zn+2] [Form I, trisodium zinc diethylenetriaminepentaacetate]	
0.41	0.72	1.29	1.97	2.43	5.18	5.25	O=C([O-])CN(CCN(CC(=O)[O-])CC(=O)[O-])CCN(CC(=O)[O-])CC(=O)[O-].[Na+].[Na+].[Na+].[Zn+2] [Form II, B, trisodium zinc diethylenetriaminepentaacetate]	
